Test results as given in patent US5565460A, “Therapeutic purine agents for parkinson's disease” (Kyowa Hakko Koygo Co., Ltd., priority 1993, dated 1996).

Experiments:
[1] = test system: Parkinson's disease model in mice (MPTP); assay: Effect on locomotor activity in Parkinson's disease model in mice (MPTP-treated mice); format: in vivo, male C57BL/6 mice; conditions: 30 minutes measurement
Method: 1-Methyl-4-phenyl-1,2,3,6-tetrahydropyridine (MPTP) causes symptoms of Parkinson's disease in humans Science, 219, 979 (1983)]. It is reported that an experimental Parkinson's disease model was obtained by administering MPTP to mice [Science, 224, 1451 (1984)]. If a compound is effective on the experimental Parkinson's disease model in mouse, the compound can be expected to have a therapeutic effect on Parkinson's disease.
The experiment was performed by using several groups of 7-weeks-old male C57BL/6 mice (weighing 20 to 24 g, Japan SLC), each group consisting of 8 mice. MPTP (RBI Co., Ltd. ) dissolved in a physiological saline solution (Otsuka Pharmaceutical Co., Ltd. ) was intraperitoneally administered to each mouse once a day for five consecutive days at a dose of 30 mg/kg. Test compounds were suspended in injectable distilled water (Otsuka Pharmaceutical Co., Ltd.) containing Tween 80 [polyoxyethylene (20) sorbitan monooleate]. […] The amount of active movements of each mouse was measured by using Automex-II (Columbus Instruments International Corp.) for the period of 30 minutes starting 30 minutes after the administration of the test compound. The effect of the compounds was evaluated by comparing the average counts of the active movements of the test compound-administered groups with those of the control groups. […]

[2] = test system: Haloperidol-induced catalepsy in mice; assay: Effect on haloperidol-induced catalepsy; format: in vivo, male ddY mice; conditions: 10 mg/kg, oral; for Number of the Animals Showing Remission: five mice, catalepsy score not more than 4; for Remission Rate: rate of decrease in total score based on control group; for Total Score (catalepsy): total of five mice, 25 points at the full (control 25), not more than 20 effective
Method: The experiment was performed by using several groups of 5-weeks-old male ddY mice (weighing 22.to 24 g, Japan SLC), each group consisting of 5 mice. Haloperidol (Janssen Pharmaceutical) suspended in 0.3% CMC was intraperitoneally administered to each mouse at a dose of 1.0 mg/kg. Test compounds were suspended in 0.3% CMC or in injectable distilled water (Otsuka Pharmaceutical Co., Ltd.) containing Tween 80. L-DOPA (Kyowa Hakko Kogyo Co., Ltd.) and benserazide hydrochloride (Kyowa Hakko Kogyo Co., Ltd.) were suspended in 0.3% CMC. One hour after the haloperidol administration, the test compound suspensions and the control suspension [injectable distilled water (Otsuka Pharmaceutical Co., Ltd.) containing Tween 80] containing no test compound were orally administered to separate groups of the mice (0.1 ml per 10 g of body weight). One hour after the administration of the test compound, the forelimbs of each mouse and subsequently the hindlimbs of the same mouse were placed on a 4.5 cm-high, 1.0 cm-wide bar and catalepsy was estimated. […] The catalepsy score and the standard of judgment are shown. below.
0: forelimbs less than 5 seconds
hindlimbs less than 5 seconds
2: forelimbs 10 seconds or more
hindlimbs 5 seconds or more
hindlimbs 10 seconds or more
5: forelimbs 10 seconds or more
The effect of the compounds was evaluated by the total of the catalepsy scores of five mice in each group (25 points at the full). The groups wherein the total score was not more than 20 point is were estimated to be effective. The number of the animals showing remission against catalepsy is the number of the mice for which the catalepsy score was not more than 4 points.
The ED50 values were calculated by Probit analysis.

[3] = test system: rats with a 6-hydroxydopamine-induced unilateral lesion of the nigrostriatal dopamine pathway; assay: Augmentation of the contralateral rotation in rats with a 6-hydroxydopamine-induced unilateral lesion of the nigrostriatal dopamine pathway; format: in vivo, male Sprague-Dawley rats; conditions: 150 minutes
Text: When a unilateral lesion of the nigrostriatal pathway is induced by 6-hydroxydopamine in rodents, the sensitivity of dopamine receptors in the denervated striatum is enhanced. Administration of a dopamine […] to the rodents in such a condition induces a rotational behavior to the side contralateral to the lesioned side [Acta Physiol. Scand., 367, 69 (1971)]. This model has been used for a long time as a model for the study of Parkinson's disease and in the screening of drugs for this disease [Neurol. Neurobiol.; 33, 1 (1987)].
Male Sprague-Dawley rats (weighing 200 to 240 g, Japan SLC) were pretreated with desipramine hydrochloride (25 mg/kg, i.p., Sigma Co.) 30 minutes before surgery to protect noradrenergic neurons. Then, the animals were: anesthetized with sodium pentobarbital (30 mg/kg, i.p., Dainippon Pharm. Co., Ltd.) and the nigrostriatal pathway was lesioned by injection of 6-hydroxydopamine hydrobromide (8 μg, Sigma Co.) into the left medial forebrain bundle. 6-Hydroxydopamine hydrobromide was dissolved in physiological saline containing 0.05% L-ascorbic acid (Wako Pure Chem. Industries, Ltd.) to make 2 μl. of solution and injected over 3 minutes.
More than 10 days after surgery, each rat was placed in a plastic bowl (30 cm in diameter). […] The number of rotations was counted with an automated rotometer, in which each 180° turn was counted as a rotation. […]

rid-strain male mice = assay: Acute toxicity test; format: in vivo; conditions: oral, seven days after administration
Method: Test compounds were orally administered to groups of rid-strain male mice weighing 20±1 g, each group consisting of three mice. Seven days after the administration, minimum lethal dose (MLD) of each compound was determined by observing the mortality.

[4] = test system: Haloperidol-induced catalepsy in mice; assay: Effect on haloperidol-induced catalepsy; format: in vivo, male ddY mice; conditions: Mus musculus; ten mice at each dose; effective = catalepsy score 3 or less; Probit analysis; read-out: ED50 (50% effective dose)

## Nc1nc(Oc2ccccc2)nc2nc(-c3ccco3)nn12 [Compound 1, 7-Amino-2(2-furyl) -5-phenoxy [1,2,4]triazolo[1,5-a]-1,3,5-triazine]
[1]; 10 mg/kg, oral, MPTP group 41 ± 14.3, normal control 1984 ± 122.3
  Amount of Active Movements (average count ± S.E.M): 785 ± 87.3 count
[2]
  Number of the Animals Showing Remission: 5
  Remission Rate: 80%
  Total Score (catalepsy): 5
[3]; 10 mg/kg oral 30 minutes before apomorphine 0.1 mg/kg, s.c., p<0.05
  total rotation counts (average count ± S.E.M.), test compound + apomorphine: 1011 ± 139 count
rid-strain male mice
  minimum lethal dose (MLD): greater than 300 mg/kg
[4]
  ED50: 1.3 mg/kg

## Nc1nc(Oc2ccccc2)nc2cc(-c3ccco3)nn12 [Compound 2, 7-Amino-2-(2-furyl) -5-phenoxypyrazolo [2,3-a]-1,3,5-triazine]
[2]
  Number of the Animals Showing Remission: 4
  Remission Rate: 32%
  Total Score (catalepsy): 17
rid-strain male mice
  minimum lethal dose (MLD): greater than 300 mg/kg

## Nc1nc2ccc(Cl)cc2c2nc(-c3ccco3)nn12 [Compound 3, 5-Amino-9-chloro-2-(2-furyl) -1,2,4-triazolo-[1,5-c]quinazoline]
[2]
  Number of the Animals Showing Remission: 4
  Remission Rate: 48%
  Total Score (catalepsy): 13

## Nc1nc2nn(Cc3ccc(F)cc3)cc2c2nc(-c3ccco3)nn12 [Compound 4, 5-Amino-8-(4-fluorobenzyl) -2-(2-furyl)pyrazolo-[4,3-e]-1,2,4-triazolo [1,5-c]pyrimidine]
[2]
  Number of the Animals Showing Remission: 3
  Remission Rate: 52%
  Total Score (catalepsy): 12

## N[C@@H](Cc1ccc(O)c(O)c1)C(=O)O [L-DOPA, reference compound]
[1]; L-DOPA 300 mg/kg, MPTP group 207 ± 85.5, normal control 1875 ± 77.7, no significant difference vs MPTP-treated group
  Amount of Active Movements (average count ± S.E.M): 561 ± 271.01 count

## CN1CCc2cccc3c2[C@H]1Cc1ccc(O)c(O)c1-3 [apomorphine, reference compound]
[3]; apomorphine 0.1 mg/kg, s.c. without test compound
  total rotation counts (average count ± S.E.M.), apomorphine: 706 ± 59 count
